Laboratory results published in article PMC5760651, “Peptidomimetic blockade of MYB in acute myeloid leukemia” (Nature Communications, 2018).
Non-standard residues stand in square brackets, D forms with d. Residues, ends and D or L forms follow the SMILES beside them. No end group written: not given here. *: point of attachment. Biotin = O=C1N[C@H]2[C@H](CS[C@H]2CCCCC(=O)*)N1

How the values were obtained:
[1] = test system: MOLM13, OCIAML2, and K562 cells; experiment: Cell viability with L-amino acid containing peptides; assay type: cell-based; details: 20 μM, 2 days, three biological replicates
Method: (§1) Cells were resuspended and plated at a concentration of 2 × 10^5 cells in 200 μl in 96-well tissue culture plates. Media with peptides was replaced every 48 h. To assess the number of viable cells, cells were resuspended in PBS and 10 µl of suspension was mixed in a 1:1 ratio with 0.4% Trypan Blue (Thermo Fisher) and counted using a hemacytometer (Hausser Scientific, Horsham, PA, USA). To assess viability using an ATP-based assay, cell viability was assessed using the CellTiter-Glo Luminescent Viability assay, according to the manufacturer’s instructions (Promega). Luminescence was recorded using the Infinite M1000Pro plate reader using integration time of 250 ms (Tecan).
Supplementary Figure 5. Viability of MOLM13, OCIAML2, and K562 cells, treated for 2 days with control PBS (black), 20 μM TATMYG (blue), and 20 μM TATMYB (red). Error bars […]
between treatment conditions.
(1 picture or pasted object on this page, not shown here)

[2] = Plasma pharmacokinetics of BIO-MYBMIM, spectrophotometric avidin assay; assay type: in vivo, mouse; details: C57BL/6J mice, single dose 25 mg/kg IP
Method: All mouse experiments were carried out in accordance with the Memorial Sloan Kettering Institutional Animal Care and Use Committee. For toxicity studies, female C57BL/6J mice (The Jackson Laboratory, Bar Harbor, Maine, USA) were treated with MYBMIM peptide suspended in PBS and administered daily through intraperitoneal injection at a dose of 25 mg/kg for a total of 7 days. Mice were sacrificed at the end of treatment for hematologic, biochemical and histologic analyses. For pharmacokinetic studies, C57BL/6J mice (The Jackson Laboratory, Bar Harbor, Maine, USA) were treated with a single IP injection of 25 mg/kg BIO-MYBMIM, and blood plasma was collected 30 min, 2 h, 4 h, and 24 h post-injection. Quantification of BIO-MYBMIM was measured using the Quant-Tag Biotin kit (Vector Labs, cat. # BDK-2000) following the manufacturer instructions. For patient-derived xenografts, two hundred thousand primary AML MLL-rearranged leukemia cells were suspended in […] of PBS and transplanted via tail vein injection into 8-week-old sublethally irradiated (200 rad) female NOD.Cg-Prkdc(scid)Il2rg(tm1Wjl)/SzJ mice (The Jackson Laboratory, Bar Harbor, Maine, USA). […] Mice were treated from days 3–17 of this study for a total of 14 days and then monitored daily with clinical examination for survival analysis.

[3] = test system: MOLM-13, MV-411, ML-2 and HL-60 cells; experiment: Cell viability of AML cell lines; assay type: cell-based, human; details: 6 days, 20 μM TG1, TG2 or TG3, 10 and 20 μM MYBMIM, peptide replacement every 48 h, compared to untreated control
Method: as §1

[4] = molecular target: FITC-conjugated MYB peptide (L-amino acid containing counterpart of MYBMIM) (UniProt P10242); experiment: MST
[5] = molecular target: T1, purified recombinant CBP KIX domain (UniProt P45481 586-665); experiment: MST; details: both partners purified
T1 construct: also called KIX domain of CBP; source: E. coli BL21(DE3), pGEX-KIX, purified (glutathione agarose, thrombin cleavage, MonoS cation exchange)
T1 sequence (P45481 586-665): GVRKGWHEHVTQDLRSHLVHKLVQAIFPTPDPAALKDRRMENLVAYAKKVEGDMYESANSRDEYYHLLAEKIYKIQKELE

Ac-YGRKKRRQRRRGGKRIKELELLLMSTENELK-NH2 [TATMYB]
Viability [1]: no significant differences

CC[C@@H](C)[C@@H](NC(=O)[C@@H](CCCCN)NC(=O)[C@@H](CCC(=O)O)NC(=O)[C@@H](CC(C)C)NC(=O)[C@@H](CCC(=O)O)NC(=O)[C@@H](CC(C)C)NC(=O)[C@@H](CC(C)C)NC(=O)[C@@H](CC(C)C)NC(=O)[C@@H](CCSC)NC(=O)[C@@H](CO)NC(=O)[C@H](NC(=O)[C@@H](CCC(=O)O)NC(=O)[C@@H](CC(N)=O)NC(=O)[C@@H](CCC(=O)O)NC(=O)[C@@H](CC(C)C)NC(=O)[C@@H](CCCCN)NC(C)=O)[C@H](C)O)C(=O)N[C@H](CCCNC(=N)N)C(=O)N[C@H](CCCCN)C(=O)NCC(=O)NCC(=O)N[C@H](CCCNC(=N)N)C(=O)N[C@H](CCCNC(=N)N)C(=O)N[C@H](CCCNC(=N)N)C(=O)N[C@H](CCC(N)=O)C(=O)N[C@H](CCCNC(=N)N)C(=O)N[C@H](CCCNC(=N)N)C(=O)N[C@H](CCCCN)C(=O)N[C@H](CCCCN)C(=O)N[C@H](CCCNC(=N)N)C(=O)NCC(=O)N[C@H](Cc1ccc(O)cc1)C(=O)N[C@H](CCCCNC(=O)CCCC[C@@H]1SC[C@@H]2NC(=O)N[C@@H]21)C(N)=O [BIO-MYBMIM] (Ac-[dK][dL][dE][dN][dE][dT][dS][dM][dL][dL][dL][dE][dL][dE][dK][dI][dR][dK]GG[dR][dR][dR][dQ][dR][dR][dK][dK][dR]G[dY][dK](Biotin)-NH2)
Plasma elimination [2]: biphasic elimination
Time of peak plasma peptide levels post injection ([2]; plasma collected at 30 min, 2 h, 4 h, 24 h): ≤ 30 min

CC[C@@H](C)[C@@H](NC(=O)[C@@H](CCCCN)NC(=O)[C@@H](CCC(=O)O)NC(=O)[C@@H](CC(C)C)NC(=O)[C@@H](CCC(=O)O)NC(=O)[C@@H](CC(C)C)NC(=O)[C@@H](CC(C)C)NC(=O)CNC(=O)[C@@H](CCSC)NC(=O)[C@@H](CO)NC(=O)[C@H](NC(=O)[C@@H](CCC(=O)O)NC(=O)[C@@H](CC(N)=O)NC(=O)CNC(=O)[C@@H](CC(C)C)NC(=O)[C@@H](CCCCN)NC(C)=O)[C@H](C)O)C(=O)N[C@H](CCCNC(=N)N)C(=O)N[C@H](CCCCN)C(=O)NCC(=O)NCC(=O)N[C@H](CCCNC(=N)N)C(=O)N[C@H](CCCNC(=N)N)C(=O)N[C@H](CCCNC(=N)N)C(=O)N[C@H](CCC(N)=O)C(=O)N[C@H](CCCNC(=N)N)C(=O)N[C@H](CCCNC(=N)N)C(=O)N[C@H](CCCCN)C(=O)N[C@H](CCCCN)C(=O)N[C@H](CCCNC(=N)N)C(=O)NCC(=O)N[C@H](Cc1ccc(O)cc1)C(N)=O [TG2] (Ac-[dK][dL]G[dN][dE][dT][dS][dM]G[dL][dL][dE][dL][dE][dK][dI][dR][dK]GG[dR][dR][dR][dQ][dR][dR][dK][dK][dR]G[dY]-NH2)
Growth of AML cell lines [3]: inactive

CC[C@@H](C)[C@@H](NC(=O)[C@@H](CCCCN)NC(=O)[C@@H](CCC(=O)O)NC(=O)[C@@H](CC(C)C)NC(=O)[C@@H](CCC(=O)O)NC(=O)[C@@H](CC(C)C)NC(=O)[C@@H](CC(C)C)NC(=O)CNC(=O)[C@@H](CCSC)NC(=O)[C@@H](CO)NC(=O)[C@H](NC(=O)[C@@H](CCC(=O)O)NC(=O)[C@@H](CC(N)=O)NC(=O)[C@@H](CCC(=O)O)NC(=O)[C@@H](CC(C)C)NC(=O)[C@@H](CCCCN)NC(C)=O)[C@H](C)O)C(=O)N[C@H](CCCNC(=N)N)C(=O)N[C@H](CCCCN)C(=O)NCC(=O)NCC(=O)N[C@H](CCCNC(=N)N)C(=O)N[C@H](CCCNC(=N)N)C(=O)N[C@H](CCCNC(=N)N)C(=O)N[C@H](CCC(N)=O)C(=O)N[C@H](CCCNC(=N)N)C(=O)N[C@H](CCCNC(=N)N)C(=O)N[C@H](CCCCN)C(=O)N[C@H](CCCCN)C(=O)N[C@H](CCCNC(=N)N)C(=O)NCC(=O)N[C@H](Cc1ccc(O)cc1)C(N)=O [TG1] (Ac-[dK][dL][dE][dN][dE][dT][dS][dM]G[dL][dL][dE][dL][dE][dK][dI][dR][dK]GG[dR][dR][dR][dQ][dR][dR][dK][dK][dR]G[dY]-NH2)
Growth of AML cell lines [3]: inactive

purified recombinant CBP KIX domain (from UniProt P45481 586-665) (domain or fragment)
Kd [4]: 4.2 µM

Ac-YGRKKRRQRRRGGKRIKELELLLMSTENGLK-NH2 [TATMYG]
Viability [1]: no significant differences

B1: FITC-conjugated TG3 (peptide)
chain: [dK][dL]G[dN][dE][dT][dS][dM]G[dL][dL][dE][dL][dE][dK][dI]G[dK]GG[dR][dR][dR][dQ][dR][dR][dK][dK][dR]G[dY]-NH2
modifications: also: FITC-conjugated, site not given here
Kd [5]: 114 ± 36.6 µM

B2: FITC-conjugated MYBMIM (peptide)
chain: [dK][dL][dE][dN][dE][dT][dS][dM][dL][dL][dL][dE][dL][dE][dK][dI][dR][dK]
modifications: also: FITC-conjugated, site not given here, retro-inverso TAT delivery segment not in chain
Kd [5]: 21.3 ± 2.9 µM

B3: FITC-conjugated TG1 (peptide)
chain: [dK][dL][dE][dN][dE][dT][dS][dM]G[dL][dL][dE][dL][dE][dK][dI][dR][dK]GG[dR][dR][dR][dQ][dR][dR][dK][dK][dR]G[dY]-NH2
modifications: also: FITC-conjugated, site not given here
Kd [5]: 59.2 ± 12.4 µM

B4: FITC-conjugated TG2 (peptide)
chain: [dK][dL]G[dN][dE][dT][dS][dM]G[dL][dL][dE][dL][dE][dK][dI][dR][dK]GG[dR][dR][dR][dQ][dR][dR][dK][dK][dR]G[dY]-NH2
modifications: also: FITC-conjugated, site not given here
Kd [5]: 75.1 ± 12.5 µM
